pKi: −log10 of the molar value.
Experiments:
NDM-1 = NDM-1 (Klebsiella pneumoniae, UniProt C7C422); assay: biochemical; conditions: substrate imipenem 100 μM
[1] = test system: ECL1057 (NDM-1, TEM-1, CTX-M-15); assay type: cell-based, Enterobacter cloacae
Excerpt: (§1) Several strains simultaneously expressing both class A and class B carbapenemases, which were constructed using conjugation, were also included in the panel.

ECL1082 (VIM-1) = assay type: cell-based, Enterobacter cloacae
Excerpt: as §1

ECLM1015 (NDM, KPC) = assay type: cell-based, Enterobacter cloacae
Excerpt: as §1

ECLM1013 (NDM, KPC) = assay type: cell-based, Enterobacter cloacae
Excerpt: as §1

ECL1045 (VIM-1) = assay type: cell-based, Enterobacter cloacae
Excerpt: as §1

ECLM1019 (VIM, KPC) = assay type: cell-based, Enterobacter cloacae
Excerpt: as §1

ECLM1018 (VIM, KPC) = assay type: cell-based, Enterobacter cloacae
Excerpt: as §1

ECLM1014 (NDM, KPC) = assay type: cell-based, Enterobacter cloacae
Excerpt: as §1

ECLM1017 (VIM, KPC) = assay type: cell-based, Enterobacter cloacae
Excerpt: as §1

ECL1026 (KPC) = assay type: cell-based, Enterobacter cloacae
Excerpt: as §1

ECLM1016 (NDM, KPC) = assay type: cell-based, Enterobacter cloacae
Excerpt: as §1

ECL1055 (KPC) = assay type: cell-based, Enterobacter cloacae
Excerpt: as §1

ECL1036 (KPC) = assay type: cell-based, Enterobacter cloacae
Excerpt: as §1

KP1014 (Vim-1, TEM, SHV) = assay type: cell-based, Klebsiella pneumoniae
Excerpt: as §1

KP1098 (IMP-26 TEM SHV) = assay type: cell-based, Klebsiella pneumoniae
Excerpt: as §1

[2] = test system: KPM1347 (NDM-1 SHV CTX-M-15); assay type: cell-based, Klebsiella pneumoniae
Excerpt: as §1

Chain of NDM-1 (C7C422 29-270, looked up, species assumed): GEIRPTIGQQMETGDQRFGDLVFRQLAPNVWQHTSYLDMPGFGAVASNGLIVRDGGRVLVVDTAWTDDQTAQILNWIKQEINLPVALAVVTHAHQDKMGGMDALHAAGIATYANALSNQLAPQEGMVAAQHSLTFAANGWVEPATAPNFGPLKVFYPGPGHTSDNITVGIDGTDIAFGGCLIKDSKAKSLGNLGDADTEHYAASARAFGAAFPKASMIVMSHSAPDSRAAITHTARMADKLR

Nn1cnnc1S[C@H]1Cc2cccc(C(=O)O)c2OB1O [Compound 14, (R)-3-(4-amino-4H-1,2,4-triazol-3-ylthio)-2-hydroxy-3,4-dihydro-2H-benzo[e][1,2]oxaborinine-8-carboxylic acid]
pKi (NDM-1): 7.00 to 8.00 | Imipenem + 14 MIC [1]: Y (key: X: MIC of less than 1 μg/mL; Y: MIC of 1 μg/mL to 10 μg/mL; Z: MIC of greater than 10 μg/mL) | Meropenem + 14 MIC [1]: Z (key: X: MIC of less than 1 μg/mL; Y: MIC of 1 μg/mL to 10 μg/mL; Z: MIC of greater than 10 μg/mL) | Imipenem + 14 MIC (ECL1082 (VIM-1)): X (key: X: MIC of less than 1 μg/mL; Y: MIC of 1 μg/mL to 10 μg/mL; Z: MIC of greater than 10 μg/mL) | Meropenem + 14 MIC (ECL1082 (VIM-1)): X (key: X: MIC of less than 1 μg/mL; Y: MIC of 1 μg/mL to 10 μg/mL; Z: MIC of greater than 10 μg/mL) | Imipenem + 14 MIC (ECLM1015 (NDM, KPC)): X (key: X: MIC of less than 1 μg/mL; Y: MIC of 1 μg/mL to 10 μg/mL; Z: MIC of greater than 10 μg/mL) | Meropenem + 14 MIC (ECLM1015 (NDM, KPC)): X (key: X: MIC of less than 1 μg/mL; Y: MIC of 1 μg/mL to 10 μg/mL; Z: MIC of greater than 10 μg/mL) | Imipenem + 14 MIC (ECLM1013 (NDM, KPC)): X (key: X: MIC of less than 1 μg/mL; Y: MIC of 1 μg/mL to 10 μg/mL; Z: MIC of greater than 10 μg/mL) | Meropenem + 14 MIC (ECLM1013 (NDM, KPC)): X (key: X: MIC of less than 1 μg/mL; Y: MIC of 1 μg/mL to 10 μg/mL; Z: MIC of greater than 10 μg/mL) | Imipenem + 14 MIC (ECL1045 (VIM-1)): X (key: X: MIC of less than 1 μg/mL; Y: MIC of 1 μg/mL to 10 μg/mL; Z: MIC of greater than 10 μg/mL) | Meropenem + 14 MIC (ECL1045 (VIM-1)): X (key: X: MIC of less than 1 μg/mL; Y: MIC of 1 μg/mL to 10 μg/mL; Z: MIC of greater than 10 μg/mL) | Imipenem + 14 MIC (ECLM1019 (VIM, KPC)): X (key: X: MIC of less than 1 μg/mL; Y: MIC of 1 μg/mL to 10 μg/mL; Z: MIC of greater than 10 μg/mL) | Meropenem + 14 MIC (ECLM1019 (VIM, KPC)): X (key: X: MIC of less than 1 μg/mL; Y: MIC of 1 μg/mL to 10 μg/mL; Z: MIC of greater than 10 μg/mL) | Imipenem + 14 MIC (ECLM1018 (VIM, KPC)): Y (key: X: MIC of less than 1 μg/mL; Y: MIC of 1 μg/mL to 10 μg/mL; Z: MIC of greater than 10 μg/mL) | Meropenem + 14 MIC (ECLM1018 (VIM, KPC)): X (key: X: MIC of less than 1 μg/mL; Y: MIC of 1 μg/mL to 10 μg/mL; Z: MIC of greater than 10 μg/mL) | Imipenem + 14 MIC (ECLM1014 (NDM, KPC)): X (key: X: MIC of less than 1 μg/mL; Y: MIC of 1 μg/mL to 10 μg/mL; Z: MIC of greater than 10 μg/mL) | Meropenem + 14 MIC (ECLM1014 (NDM, KPC)): X (key: X: MIC of less than 1 μg/mL; Y: MIC of 1 μg/mL to 10 μg/mL; Z: MIC of greater than 10 μg/mL) | Imipenem + 14 MIC (ECLM1017 (VIM, KPC)): X (key: X: MIC of less than 1 μg/mL; Y: MIC of 1 μg/mL to 10 μg/mL; Z: MIC of greater than 10 μg/mL) | Meropenem + 14 MIC (ECLM1017 (VIM, KPC)): X (key: X: MIC of less than 1 μg/mL; Y: MIC of 1 μg/mL to 10 μg/mL; Z: MIC of greater than 10 μg/mL) | Imipenem + 14 MIC (ECL1026 (KPC)): X (key: X: MIC of less than 1 μg/mL; Y: MIC of 1 μg/mL to 10 μg/mL; Z: MIC of greater than 10 μg/mL) | Meropenem + 14 MIC (ECL1026 (KPC)): X (key: X: MIC of less than 1 μg/mL; Y: MIC of 1 μg/mL to 10 μg/mL; Z: MIC of greater than 10 μg/mL) | Imipenem + 14 MIC (ECLM1016 (NDM, KPC)): X (key: X: MIC of less than 1 μg/mL; Y: MIC of 1 μg/mL to 10 μg/mL; Z: MIC of greater than 10 μg/mL) | Meropenem + 14 MIC (ECLM1016 (NDM, KPC)): X (key: X: MIC of less than 1 μg/mL; Y: MIC of 1 μg/mL to 10 μg/mL; Z: MIC of greater than 10 μg/mL) | Imipenem + 14 MIC (ECL1055 (KPC)): X (key: X: MIC of less than 1 μg/mL; Y: MIC of 1 μg/mL to 10 μg/mL; Z: MIC of greater than 10 μg/mL) | Meropenem + 14 MIC (ECL1055 (KPC)): X (key: X: MIC of less than 1 μg/mL; Y: MIC of 1 μg/mL to 10 μg/mL; Z: MIC of greater than 10 μg/mL) | Imipenem + 14 MIC (ECL1036 (KPC)): X (key: X: MIC of less than 1 μg/mL; Y: MIC of 1 μg/mL to 10 μg/mL; Z: MIC of greater than 10 μg/mL) | Meropenem + 14 MIC (ECL1036 (KPC)): X (key: X: MIC of less than 1 μg/mL; Y: MIC of 1 μg/mL to 10 μg/mL; Z: MIC of greater than 10 μg/mL) | Imipenem + 14 MIC (KP1014 (Vim-1, TEM, SHV)): X (key: X: MIC of less than 1 μg/mL; Y: MIC of 1 μg/mL to 10 μg/mL; Z: MIC of greater than 10 μg/mL) | Meropenem + 14 MIC (KP1014 (Vim-1, TEM, SHV)): X (key: X: MIC of less than 1 μg/mL; Y: MIC of 1 μg/mL to 10 μg/mL; Z: MIC of greater than 10 μg/mL) | Imipenem + 14 MIC (KP1098 (IMP-26 TEM SHV)): Y (key: X: MIC of less than 1 μg/mL; Y: MIC of 1 μg/mL to 10 μg/mL; Z: MIC of greater than 10 μg/mL) | Meropenem + 14 MIC (KP1098 (IMP-26 TEM SHV)): Z (key: X: MIC of less than 1 μg/mL; Y: MIC of 1 μg/mL to 10 μg/mL; Z: MIC of greater than 10 μg/mL) | Imipenem + 14 MIC [2]: X (key: X: MIC of less than 1 μg/mL; Y: MIC of 1 μg/mL to 10 μg/mL; Z: MIC of greater than 10 μg/mL)
